Experimental data as given in ChEMBL document CHEMBL1201862, “PubChem BioAssay data set” (2004).
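Assay format: 96-well plates, 48-hour exposure. Here, GI50 denotes the concentration required for 50% inhibition of growth.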 Active and inactive are the calls of the source. No stated cut-off is given here; in the data, active = GI50 up to about 1.1 µM and inactive = higher.

Legend:
Assay in all cases: growth of human tumour cells (NCI), 48 h
DU-145 = tested on: DU-145
SK-MEL-5 = tested on: SK-MEL-5
RPMI-8226 = tested on: RPMI-8226
TK-10 = tested on: TK-10
HCT-116 = tested on: HCT-116
A549 = tested on: A549
PC-3 = tested on: PC-3
T47D = tested on: T47D
KM12 = tested on: KM12
A498 = tested on: A498
SK-OV-3 = tested on: SK-OV-3
786-0 = tested on: 786-0
U-251 = tested on: U-251
SK-MEL-28 = tested on: SK-MEL-28
SNB-19 = tested on: SNB-19
Malme-3M = tested on: Malme-3M
NCI-H522 = tested on: NCI-H522
NCI-H460 = tested on: NCI-H460

Measured: GI50

COc1nc(C(=O)NNC(=O)c2nc(OC)c3ccccc3c2-c2ccccc2)c(-c2ccccc2)c2ccccc12
inactive: DU-145 > 100 µM | SK-MEL-5 > 100 µM | RPMI-8226 > 100 µM | TK-10 > 100 µM | HCT-116 > 100 µM | A549 > 100 µM | PC-3 > 100 µM | T47D > 100 µM | KM12 > 100 µM | A498 > 100 µM | SK-OV-3 > 100 µM | 786-0 > 100 µM | U-251 > 100 µM | SK-MEL-28 > 100 µM | SNB-19 > 100 µM | Malme-3M > 100 µM | NCI-H522 > 100 µM

N#CC1C(=O)NC2=C(CCOc3c2ccc2ccccc32)C1c1ccc(F)cc1 (stereo not drawn)
inactive: DU-145 29.1 µM | SK-MEL-5 21.5 µM | TK-10 23.4 µM | HCT-116 14 µM | A549 25.2 µM | PC-3 19.3 µM | T47D 27.4 µM | KM12 67.5 µM | A498 19.7 µM | SK-OV-3 24.8 µM | 786-0 17.7 µM | U-251 12.3 µM | SNB-19 20 µM | Malme-3M 27.8 µM | NCI-H460 29.9 µM | NCI-H522 37.1 µM

Oc1c(C2=NNC(c3ccc(Cl)cc3Cl)C2)ccc2ccccc12 (stereo not drawn)
inactive: DU-145 64.9 µM | SK-MEL-5 52 µM | RPMI-8226 32 µM | TK-10 66.2 µM | HCT-116 33.6 µM | A549 29 µM | PC-3 31.6 µM | T47D 62.2 µM | KM12 26.2 µM | A498 71.4 µM | SK-OV-3 46.3 µM | 786-0 31.5 µM | U-251 32.5 µM | SK-MEL-28 45.7 µM | Malme-3M 17.9 µM | NCI-H460 30.1 µM | NCI-H522 24 µM

O=c1[nH]nc(Cc2ccc(Cl)cc2)n1/N=C/c1cccs1
inactive: DU-145 99.8 µM | RPMI-8226 > 100 µM | HCT-116 30.8 µM | A549 64.9 µM | PC-3 > 100 µM | T47D > 100 µM | KM12 > 100 µM | A498 29.1 µM | SK-OV-3 43.9 µM | 786-0 26.6 µM | U-251 28.4 µM | SK-MEL-28 > 100 µM | SNB-19 20.4 µM | Malme-3M > 100 µM | NCI-H460 > 100 µM | NCI-H522 23.7 µM

O=[N+]([O-])c1cccc(/N=N/c2c(O)c(S(=O)(=O)O)cc3cc(S(=O)(=O)O)ccc23)c1
inactive: DU-145 > 100 µM | SK-MEL-5 > 100 µM | TK-10 > 100 µM | HCT-116 > 100 µM | A549 > 100 µM | PC-3 > 100 µM | T47D > 100 µM | KM12 > 100 µM | A498 > 100 µM | SK-OV-3 > 100 µM | 786-0 > 100 µM | U-251 > 100 µM | SK-MEL-28 > 100 µM | SNB-19 > 100 µM | Malme-3M > 100 µM | NCI-H460 > 100 µM | NCI-H522 > 100 µM

Cc1c(NC(=S)N/N=C\C(=N/NC(=S)Nc2c(C)n(C)n(-c3ccccc3)c2=O)c2ccccc2)c(=O)n(-c2ccccc2)n1C
inactive: DU-145 > 100 µM | SK-MEL-5 > 100 µM | TK-10 > 100 µM | HCT-116 > 100 µM | A549 > 100 µM | PC-3 > 100 µM | T47D > 100 µM | KM12 > 100 µM | A498 > 100 µM | SK-OV-3 > 100 µM | 786-0 > 100 µM | U-251 > 100 µM | SNB-19 > 100 µM | Malme-3M 87.1 µM | NCI-H460 > 100 µM
